Laboratory results from ChEMBL document CHEMBL1131262, “Comprehensive study on structure-activity relationships of rifamycins: discussion of molecular and crystal structure and spectroscopic and thermochemical properties of rifamycin O” (J Med Chem, 1998).
In brackets after ≈: the same amount, converted by molar mass. Activity calls are given as the source filed them. The calls are words filed in the database; no cut-off is given here.

Columns and labels:
[1] = tested on: Nucleic Acid; assay: Inhibitory concentration against DNA dependent RNA polymerase in Escherichia coli; type: nucleic-acid assay
[2] = tested on: Escherichia coli; assay: The compound is evaluated for inhibitory concentration against Escherichia coli and is expressed as minimum inhibitory concentration (MIC); Non active; type: functional, organism-based
[3] = tested on: Nucleic Acid; assay: Inhibitory concentration against DNA dependent RNA polymerase in E. coli; Non active; type: nucleic-acid assay, Escherichia coli
[4] = tested on: Escherichia coli; assay: The compound is evaluated for inhibitory concentration against Escherichia coli and is expressed as minimum inhibitory concentration (MIC).; type: functional
[5] = tested on: Escherichia coli; assay: The compound is evaluated for inhibitory concentration against Escherichia coli and is expressed as minimum inhibitory concentration (MIC); active; type: functional, organism-based
[6] = Escherichia coli, read-out: MIC

SMILES | IC50 [1] [nM/unit] | MIC [2] | IC50 [3] | further results
COC1/C=C/OC2(C)Oc3c(C)c(O)c4c(c3C2=O)C(=O)C=C(NC(=O)C(C)CCCC(C)C(O)C(C)C(O)C(C)C(OC(C)=O)C1C)C4=O (configuration not stated) | 1600 | – | – | –
COC1=N/C2=CC(=O)c3c(c(O)c(C)c4c3C(=O)C(C)(O/C=C/C(OC)C(C)C(OC(C)=O)C(C)C(O)C(C)C(O)C(C)\C=C/C=C\1C)O4)C2=O (configuration not stated) | – | inactive | – | –
COc1c(C)c2c3c4c(O)cc5c(c14)OC(N5)/C(C)=C\C=C\C(C)C(O)C(C)C(O)C(C)C(OC(C)=O)C(C)C(OC)/C=C/OC(C)(O2)C3=O (configuration not stated) | – | inactive | Not Active | –
CO[C@H]1/C=C/O[C@@]2(C)Oc3c(C)c(O)c4c(O)c(c(/C=N/N5CCN(C)CC5)c(O)c4c3C2=O)NC(=O)/C(C)=C\C=C\[C@H](C)[C@H](O)[C@@H](C)[C@@H](O)[C@@H](C)[C@H](OC(C)=O)[C@@H]1C [RIFAMPIN] | – | – | – | MIC [4, 6]: 20 µg/mL (≈ 24.3 µM)
COC1/C=C/OC2(C)Oc3c(C)c(O)c4c(c3C2=O)C2(C=C(NC(=O)/C(C)=C\C=C\C(C)C(O)C(C)C(O)C(C)C(OC(C)=O)C1C)C4=O)OCC(=O)O2 (configuration not stated) | – | – | – | MIC [4, 6]: 75 µg/mL (≈ 99.5 µM)
COC1=N\C2=CC(=O)c3c(c(O)c(C)c4c3C(=O)C(C)(O/C=C/C(OC)C(C)C(OC(C)=O)C(C)C(O)C(C)C(O)C(C)/C=C/C=C\1C)O4)C2=O (configuration not stated) | – | – | Not Active | –
CCN(CC)c1nc2c(s1)c1c(O)c3c(O)c(C)c4c(c32)C(=O)[C@@](C)(O/C=C/[C@H](OC)[C@@H](C)[C@@H](OC(C)=O)[C@H](C)[C@H](O)[C@H](C)[C@@H](O)[C@@H](C)/C=C/C=C(/C)C(=O)N1)O4 [RIFAMEXIL] | – | – | – | MIC [4, 6]: 32 µg/mL (≈ 39.5 µM)
COC1/C=C/OC2(C)Oc3c(C)c(O)c4c(O)c(cc(OCC(=O)Nc5ccc(I)cc5)c4c3C2=O)NC(=O)/C(C)=C\C=C\C(C)(O)C(=O)C(C)C(O)C(C)C(OC(C)=O)C1C (configuration not stated) | – | inactive | Not Active | –
CO[C@H]1/C=C/O[C@@]2(C)Oc3c(C)c(O)c4c(O)c(cc(O)c4c3C2=O)NC(=O)/C(C)=C\C=C\[C@H](C)[C@H](O)[C@@H](C)[C@@H](O)[C@@H](C)[C@H](OC(C)=O)[C@@H]1C (stereo in doubt; form 2) [RIFAMYCIN] | 85 | – | – | MIC [4]: 25 µg/mL (≈ 35.8 µM)
COC1/C=C/C2OC3(C)C4c5c(c(C)c(O)c6c5C(=O)C=C(NC(=O)/C(C)=C\C=C\C(C)C5OC(C)(C)OC(C(C)C(O)C1C)C5C)C6=O)OC43O2 (configuration not stated) | – | inactive | Not Active | –
COC1/C=C/OC2(C)Oc3c(C)c(O)c4c(c3C2=O)C(=O)C=C(NC(=O)/C(C)=C\C=C\C(C)C(O)C(C)C(O)C(C)C(OC(C)=O)C1C)C4=O (configuration not stated) | 50 | – | – | MIC [4, 6]: 12 µg/mL (≈ 17.2 µM)
COC1/C=C/OC2(C)Oc3c(C)c(O)c4c(c3C2O)C(=O)C=C(NC(=O)/C(C)=C\C=C\C(C)C(O)C(C)C(O)C(C)C(OC(C)=O)C1C)C4=O (configuration not stated) | 50 | – | – | –
COC1/C=C/OC2(C)Oc3c(C)c(O)c4c(c3C2O)C(=O)C=C(NC(=O)/C(C)=C\C=C\C(C)C2OC(C)(C)OC(C(C)C(O)C1C)C2C)C4=O (configuration not stated) | – | inactive | Not Active | –
COC1/C=C/OC2(C)Oc3c(C)c(O)c4c(c3C2=O)-c2[n-]c3ccc(Br)c[n+]3c2/C(=N/C(=O)/C(C)=C\C=C\C(C)C(O)C(C)C(O)C(C)C(OC(C)=O)C1C)C4=O (configuration not stated) | – | – | – | MIC [5]: Active
COC1/C=C/OC2(C)Oc3c(C)c(O)c4c(c3C2O)C(=O)C=C(NC(=O)/C(C)=C\C=C\C(C)C(OC(C)=O)C(C)C(O)C(C)C(OC(C)=O)C1C)C4=O (configuration not stated) | – | inactive | Not Active | –
COC(=O)C1=C2NC(=O)/C(C)=C\C=C\C(C)C(O)C(C)C(O)C(C)C(OC(C)=O)C(C)C(OC)/C=C/OC3(C)Oc4c(C)c(O)c(c(c4C3=O)C1=O)C2=O (configuration not stated) | 20 | – | – | –
COC1/C=C/OC2(C)Oc3c(C)c(O)c4c(c3C2=O)C(=O)C=C(NC(=O)/C(C)=C\C(=O)C2CC2C(O)C(C)C(O)C(C)C(OC(C)=O)C1C)C4=O (configuration not stated) [TOLYPOMYCINONE] | – | inactive | Not Active | –
CO[C@H]1/C=C/O[C@@]2(C)Oc3c(C)c(O)c4c(O)c(cc(O)c4c3C2=O)NC(=O)/C(C)=C\C=C\[C@H](C)[C@H](O)[C@@H](C)[C@@H](O)[C@@H](C)[C@H](OC(C)=O)[C@@H]1C (stereo in doubt; form 1) [RIFAMYCIN] | 15 | – | – | MIC [4]: 3 µg/mL (≈ 4.3 µM)
